Source: PubChem BioAssay (NCI)
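A five-concentration, 48-hour dose response in 96-well plates underlies each endpoint, interpolated linearly between surrounding concentrations. TGI is the concentration that stops growth completely.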

Experiments:
Assay in all cases: growth of human tumour cells (NCI), 48 h
HCT-15 colon = tested on: HCT-15 colon
SK-MEL-2 melanoma = tested on: SK-MEL-2 melanoma
SN12C renal = tested on: SN12C renal
HL-60(TB) leukemia = tested on: HL-60(TB) leukemia
RXF 393 renal = tested on: RXF 393 renal
ACHN renal = tested on: ACHN renal
786-0 renal = tested on: 786-0 renal
NCI-H23 lung = tested on: NCI-H23 lung
U251 CNS = tested on: U251 CNS
KM12 colon = tested on: KM12 colon
A549 NSCLC = tested on: A549 NSCLC
M19-MEL melanoma = tested on: M19-MEL melanoma
HT29 colon = tested on: HT29 colon
HCC-2998 colon = tested on: HCC-2998 colon
MALME-3M melanoma = tested on: MALME-3M melanoma
M14 melanoma = tested on: M14 melanoma
CAKI-1 renal = tested on: CAKI-1 renal
HOP-92 NSCLC = tested on: HOP-92 NSCLC
RXF-631 renal = tested on: RXF-631 renal
NCI-H460 lung = tested on: NCI-H460 lung
SK-OV-3 ovarian = tested on: SK-OV-3 ovarian
OVCAR-8 ovarian = tested on: OVCAR-8 ovarian
HOP-62 NSCLC = tested on: HOP-62 NSCLC
LXFL 529 NSCLC = tested on: LXFL 529 NSCLC
OVCAR-3 ovarian = tested on: OVCAR-3 ovarian
IGROV1 ovarian = tested on: IGROV1 ovarian
DLD-1 colon = tested on: DLD-1 colon
NCI-H522 lung = tested on: NCI-H522 lung
A498 renal = tested on: A498 renal
OVCAR-5 ovarian = tested on: OVCAR-5 ovarian
DMS 273 small cell lung = tested on: DMS 273 small cell lung
HOP-18 NSCLC = tested on: HOP-18 NSCLC
MOLT-4 leukemia = tested on: MOLT-4 leukemia
UACC-257 melanoma = tested on: UACC-257 melanoma
SF-295 CNS = tested on: SF-295 CNS
TK-10 renal = tested on: TK-10 renal
SK-MEL-28 melanoma = tested on: SK-MEL-28 melanoma
UO-31 renal = tested on: UO-31 renal
CCRF-CEM leukemia = tested on: CCRF-CEM leukemia
SK-MEL-5 melanoma = tested on: SK-MEL-5 melanoma
SNB-75 CNS = tested on: SNB-75 CNS
SNB-19 CNS = tested on: SNB-19 CNS
KM20L2 colon = tested on: KM20L2 colon
COLO 205 colon = tested on: COLO 205 colon
UACC-62 melanoma = tested on: UACC-62 melanoma
SNB-78 CNS = tested on: SNB-78 CNS
OVCAR-4 ovarian = tested on: OVCAR-4 ovarian
SF-268 CNS = tested on: SF-268 CNS
HCT-116 colon = tested on: HCT-116 colon
RPMI-8226 leukemia = tested on: RPMI-8226 leukemia
DMS 114 small cell lung = tested on: DMS 114 small cell lung
K-562 leukemia = tested on: K-562 leukemia
SF-539 CNS = tested on: SF-539 CNS
SW-620 colon = tested on: SW-620 colon
NCI-H226 lung = tested on: NCI-H226 lung
LOX IMVI melanoma = tested on: LOX IMVI melanoma
EKVX NSCLC = tested on: EKVX NSCLC

Work on `CCN(CC)CCCC(C)Nc1c2cc(OC)cc(C)c2nc2c(C)c(Cl)ccc12` (stereo not given) yielded a TGI (HCT-15 colon) of 3.2 µM, a TGI (SK-MEL-2 melanoma) of 3.44 µM and a TGI (SN12C renal) of 2.93 µM. It also gave a TGI (HL-60(TB) leukemia) of 4.26 µM, a TGI (RXF 393 renal) of 3.54 µM and a TGI (ACHN renal) of 3.09 µM. The TGI (786-0 renal) was 3.02 µM, the TGI (NCI-H23 lung) was 2.82 µM and the TGI (U251 CNS) was 3.26 µM. It also gave a TGI (KM12 colon) of 2.99 µM, a TGI (A549 NSCLC) of 3.31 µM and a TGI (M19-MEL melanoma) of 3.13 µM. The TGI (HT29 colon) was 3.03 µM, the TGI (HCC-2998 colon) was 3.03 µM and the TGI (MALME-3M melanoma) was 3.52 µM. The TGI (M14 melanoma) was 3.68 µM, the TGI (CAKI-1 renal) was 4.81 µM and the TGI (HOP-92 NSCLC) was 3.22 µM. It also gave a TGI (RXF-631 renal) of 3.23 µM, a TGI (NCI-H460 lung) of 3.32 µM and a TGI (SK-OV-3 ovarian) of 3.06 µM. The TGI (OVCAR-8 ovarian) was 3.19 µM, the TGI (HOP-62 NSCLC) was 3.08 µM and the TGI (LXFL 529 NSCLC) was 2.98 µM. The TGI (OVCAR-3 ovarian) was 3.27 µM, the TGI (IGROV1 ovarian) was 3.09 µM and the TGI (DLD-1 colon) was 2.93 µM. It also gave a TGI (NCI-H522 lung) of 3.06 µM, a TGI (A498 renal) of 6.3 µM and a TGI (OVCAR-5 ovarian) of 3.92 µM. The TGI (DMS 273 small cell lung) was 3.14 µM, the TGI (HOP-18 NSCLC) was 2.91 µM and the TGI (MOLT-4 leukemia) was 3.26 µM. For the same compound, the TGI (UACC-257 melanoma) was 3.31 µM, the TGI (SF-295 CNS) was 3.71 µM and the TGI (TK-10 renal) was 3.19 µM. For the same compound, the TGI (SK-MEL-28 melanoma) was 3.39 µM, the TGI (UO-31 renal) was 3.1 µM and the TGI (CCRF-CEM leukemia) was 3.25 µM. For the same compound, the TGI (SK-MEL-5 melanoma) was 3.28 µM.

`Cc1cccc(C)c1N1C(=O)C(=O)C(c2nc3ccccc3s2)/C(=N\N)C1=O` (stereo not given) gave a TGI (HCT-15 colon) greater than 100 µM, a TGI (SK-MEL-2 melanoma) greater than 100 µM and a TGI (SN12C renal) greater than 100 µM. For the same compound, the TGI (HL-60(TB) leukemia) was greater than 100 µM, the TGI (SNB-75 CNS) was greater than 100 µM and the TGI (SNB-19 CNS) was greater than 100 µM. It also gave a TGI (ACHN renal) greater than 100 µM, a TGI (786-0 renal) greater than 100 µM and a TGI (KM20L2 colon) greater than 100 µM. The TGI (NCI-H23 lung) was greater than 100 µM, the TGI (U251 CNS) was greater than 100 µM and the TGI (KM12 colon) was greater than 100 µM. It also gave a TGI (A549 NSCLC) greater than 100 µM, a TGI (M19-MEL melanoma) greater than 100 µM and a TGI (COLO 205 colon) greater than 100 µM. For the same compound, the TGI (UACC-62 melanoma) was greater than 100 µM, the TGI (HT29 colon) was greater than 100 µM and the TGI (SNB-78 CNS) was greater than 100 µM. It also gave a TGI (OVCAR-4 ovarian) greater than 100 µM, a TGI (SF-268 CNS) greater than 100 µM and a TGI (HCC-2998 colon) greater than 100 µM. It also gave a TGI (HCT-116 colon) greater than 100 µM, a TGI (RPMI-8226 leukemia) greater than 100 µM and a TGI (DMS 114 small cell lung) greater than 100 µM. For the same compound, the TGI (MALME-3M melanoma) was greater than 100 µM, the TGI (M14 melanoma) was greater than 100 µM and the TGI (CAKI-1 renal) was greater than 100 µM. The TGI (HOP-92 NSCLC) was greater than 100 µM, the TGI (RXF-631 renal) was greater than 100 µM and the TGI (NCI-H460 lung) was greater than 100 µM. For the same compound, the TGI (SK-OV-3 ovarian) was greater than 100 µM, the TGI (K-562 leukemia) was greater than 100 µM and the TGI (OVCAR-8 ovarian) was greater than 100 µM. It also gave a TGI (SF-539 CNS) greater than 100 µM, a TGI (HOP-62 NSCLC) greater than 100 µM and a TGI (LXFL 529 NSCLC) greater than 100 µM. It also gave a TGI (SW-620 colon) greater than 100 µM, a TGI (OVCAR-3 ovarian) greater than 100 µM and a TGI (IGROV1 ovarian) greater than 100 µM. For the same compound, the TGI (DLD-1 colon) was greater than 100 µM, the TGI (NCI-H522 lung) was greater than 100 µM and the TGI (A498 renal) was greater than 100 µM. The TGI (OVCAR-5 ovarian) was greater than 100 µM, the TGI (DMS 273 small cell lung) was greater than 100 µM and the TGI (NCI-H226 lung) was greater than 100 µM. The TGI (HOP-18 NSCLC) was greater than 100 µM, the TGI (MOLT-4 leukemia) was greater than 100 µM and the TGI (UACC-257 melanoma) was greater than 100 µM. It also gave a TGI (SF-295 CNS) greater than 100 µM, a TGI (TK-10 renal) greater than 100 µM and a TGI (SK-MEL-28 melanoma) greater than 100 µM. The TGI (UO-31 renal) was greater than 100 µM, the TGI (LOX IMVI melanoma) was greater than 100 µM and the TGI (SK-MEL-5 melanoma) was greater than 100 µM. For the same compound, the TGI (EKVX NSCLC) was greater than 100 µM.
